# Results: the supplement of paper PMC10307832
# Tests used:
# Experiment in all cases: relative viability (nuclei count vs DMSO), 5 days (fraction); higher = more cells survive
# [1] = compound: CC1(C)CNc2cc(NC(=O)c3cccnc3NCc3ccncc3)ccc21 [Motesanib] + COc1cc2c(Oc3ccc(NC(=O)C4(C(=O)Nc5ccc(F)cc5)CC4)cc3F)ccnc2cc1OCCCN1CCOCC1 [Foretinib] (partner 0.25 µM)
# Summary of the method: (§1)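 After 5 days of treatment, lung cancer cells in 1536-well plates were fixed and stained in a single step (final 0.05% Triton X-100, 1% formaldehyde, 1 ug/ml Hoechst) and their nuclei counted on 4× images. Treatment had been applied by pin tool the day after seeding as one drug alone or as a fixed anchor-drug dose with five library-drug doses (not always all listed) in √10 steps. Relative viability is the nuclei count of treated wells divided by that of vehicle wells, and values are medians of duplicate plates.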
# [2] = compound: CC1(C)CNc2cc(NC(=O)c3cccnc3NCc3ccncc3)ccc21 [Motesanib] + CS(=O)(=O)CCNCc1ccc(-c2ccc3ncnc(Nc4ccc(OCc5cccc(F)c5)c(Cl)c4)c3c2)o1 [Lapatinib] (partner 2 µM)
# Summary of the method: as §1
# [3] = compound: C[C@@]1(C(=O)Nc2ccc(F)nc2)CCCN1c1nc(Nc2cc(C3CC3)n[nH]2)c2cccn2n1 + Cc1nc(Nc2ncc(C(=O)Nc3c(C)cccc3Cl)s2)cc(N2CCN(CCO)CC2)n1 [Dasatinib] (partner 0.075 µM)
# Summary of the method: as §1
# [4] = compound: C[C@@]1(C(=O)Nc2ccc(F)nc2)CCCN1c1nc(Nc2cc(C3CC3)n[nH]2)c2cccn2n1 + O=C(c1cc(Cc2n[nH]c(=O)c3ccccc23)ccc1F)N1CCN(C(=O)C2CC2)CC1 [Olaparib] (partner 8 µM)
# Summary of the method: as §1
cell line,measurement,setting,value
UMC-11,relative viability,[1]; first compound 0.01 µM,0.998
same,relative viability,[1]; first compound 0.03162 µM,1.08
same,relative viability,[1]; first compound 0.1 µM,0.985
same,relative viability,[1]; first compound 0.3162 µM,1.08
same,relative viability,[1]; first compound 1 µM,1.2
same,relative viability,[2]; first compound 0.01 µM,0.901
same,relative viability,[2]; first compound 0.03162 µM,1.07
same,relative viability,[2]; first compound 0.1 µM,0.724
same,relative viability,[2]; first compound 0.3162 µM,1
same,relative viability,[2]; first compound 1 µM,1.08
same,relative viability,[3]; first compound 0.04 µM,0.478
same,relative viability,[3]; first compound 0.1265 µM,0.471
same,relative viability,[3]; first compound 0.4 µM,0.399
same,relative viability,[3]; first compound 1.265 µM,0.278
same,relative viability,[4]; first compound 0.04 µM,0.376
same,relative viability,[4]; first compound 0.1265 µM,0.316
same,relative viability,[4]; first compound 0.4 µM,0.336
same,relative viability,[4]; first compound 1.265 µM,0.426
